Experimental data: paper PMC11444200, “In Vitro Evaluation of Antipseudomonal Activity and Safety Profile of Peptidomimetic Furin Inhibitors” (Biomedicines, 2024)

Tests used:
IPEC-J2 cells [1] = assay: Amplex Red extracellular H2O2 assay in IPEC-J2 cells; assay type: cell-based, porcine; conditions: 50 or 100 μM, 24 h
Description: The cell line used for the experiments was the IPEC-J2 from the jejunum of porcine. The IPEC-J2 epithelial cell line was a kind gift from Dr. Jody Gookin (Department of Clinical Sciences, College of Veterinary Medicine, North Carolina State University, Raleigh, NC, USA). The cell monolayers were maintained in 75 cm^2 cell culture flasks with filtered caps (Orange Scientific, Braine-l’Alleud, Belgium) at 37 °C in a humidified atmosphere containing 5% CO2. The culture medium contained 50% Dulbecco’s modified Eagle’s medium (DMEM) and 50% Ham’s F12 Nutrient Mixture (Merck, Darmstadt, Germany) supplemented with 1.5 mmol/L HEPES, 5% fetal bovine serum (FBS) (Biocenter, Budapest, Hungary), 1% insulin/transferrin/sodium selenite medium supplement, 5 ng/mL epidermal growth factor (EGF), and 1% penicillin/streptomycin (all purchased from Invitrogen, Thermo Fisher Scientific, Waltham, MA, USA). Cells were used between passages 40 and 55. The media were changed every second day. Cells were seeded onto 96- and 24-well polystyrene cell culture plates for the cell viability and the Amplex Red/DCFH-DA assay, respectively. […]

Pseudomonas aeruginosa = assay: viability (CCK-8) of MDCK cells challenged with Pseudomonas aeruginosa; assay type: cell-based; conditions: P. aeruginosa 10^6 CFU/mL, 5 h, inhibitor 2 h prior and during, tested 0.5-100 µM
Description: MDCK NBL-2 cells were obtained from Cytion (formerly: CLS Cell Lines Service, Eppenheim, Germany). Cells were grown in T-75 cell culture flasks, using Dulbecco’s Modified Eagle’s Medium (DMEM, Capricorn Scientific, Ebsdorfergrund, Germany) supplemented with 5% foetal bovine serum (FBS, Capricorn) and antibiotic–antimycotic solution (penicillin, streptomycin, amphotericin B; Merck, Darmstadt, Germany). The cells were subcultured and seeded in wells of 96-well microtiter plates one day prior to the experiments. After 24 h, near 100% confluence was recorded in the wells. The growth and incubation of MDCK cells were carried out in a humidified incubator at 37 °C and in the presence of 5% CO2. […] Three times single colonies from ten different blood agar plates were dissolved in 5 mL of distilled water, and colony-forming units (CFU) were counted after their serial dilution and overnight incubation on non-selective blood agar at 37 °C. […] The count of Pseudomonas aeruginosa from inoculating vials was also assessed and was in good accordance with our count prediction. […] Following the addition of the final reagent (100 µL fresh Williams’ Medium E) and a 2 h incubation period, the absorbance was measured at 450 nm using a SpectraMax iD3 (Molecular Devices, San José, CA, USA).

IPEC-J2 cells [2] = assay: CCK-8 cytotoxicity assay in IPEC-J2 cells; assay type: cell-based, porcine; conditions: 50 µM or 100 µM, 24 h
Description: The cell line used for the experiments was the IPEC-J2 from the jejunum of porcine. The IPEC-J2 epithelial cell line was a kind gift from Dr. Jody Gookin (Department of Clinical Sciences, College of Veterinary Medicine, North Carolina State University, Raleigh, NC, USA). The cell monolayers were maintained in 75 cm^2 cell culture flasks with filtered caps (Orange Scientific, Braine-l’Alleud, Belgium) at 37 °C in a humidified atmosphere containing 5% CO2. […]
The possible cytotoxic effects of the inhibitors MI-1851 and MI-2415 (structures provided in Figure 1) in different concentrations on IPEC-J2 and those of inhibitor MI-2415 on PHHs were assessed for 24 h by performing the CCK-8 assay (Dojindo Molecular Technologies, Rockville, MD, USA). […] Following three times washing of the wells with PBS, 10 µL CCK-8 reagent mixed with 100 µL fresh Williams’ Medium E was added and the absorbance values were measured at 450 nm using the SpectraMax iD3 microplate reader (Molecular Devices, San José, CA, USA) after 2 h incubation. […]

[3] = system: α1-acid glycoprotein (AGP); assay: fluorescence quenching of α1-acid glycoprotein; assay type: binding; conditions: AGP 2 μM, ligand 0.25-2.5 μM, PBS pH 7.4, λex 285 nm
Description: Human serum albumin (HSA) (product code: A1653) and α1-acid glycoprotein (AGP) (product code: G9885) were purchased from Merck (Darmstadt, Germany) and used as received. Fluorescence emission spectra were recorded using a Hitachi F-4500 fluorometer (Tokyo, Japan), while absorption spectra were collected by employing a Hitachi U-3900 UV–Vis spectrophotometer (Tokyo, Japan). Before the evaluation of fluorescence data, the inner-filter effects of MI-1851 and MI-2415 were corrected based on the following equation [23, 24]:(1) Icor=Iobs×e^(Aex+Aem)/2 where Icor and Iobs are the corrected and observed emission intensities, respectively; and Aex and Aem are the absorbance of the MI compounds tested at the excitation and emission wavelengths used, respectively.
To examine the potential interaction of inhibitor MI-2415 with HSA, increasing levels of the ligand (final concentrations: 0, 1, 2, 3, 4, 7, and 10 μM) were added to a standard amount of the protein (2 μM) in PBS (pH 7.4), and then the emission spectra were recorded (λex = 295 nm, λem = 340 nm). Furthermore, the quenching effects of inhibitors MI-1851 and MI-2415 (both 0, 0.25, 0.5, 1, 1.5, 2, and 2.5 μM) were also tested on the emission signal of AGP (2 μM) in PBS (λex = 285 nm, λem = 337 nm).

furin = conditions: read-out: Ki for furin; cited from earlier work

| SMILES | extracellular H2O2 production (redox balance) in IPEC-J2 cells (IPEC-J2 cells [1]) | concentration with antipseudomonal effect (preserved MDCK cell viability) (Pseudomonas aeruginosa) [µM] | cell viability of IPEC-J2 cells (IPEC-J2 cells [2]) | effect on fluorescence signal of AGP at 337 nm [3] | Ki (furin) [pM] |
| --- | --- | --- | --- | --- | --- |
| CC(C)(C)[C@H](NC(=O)[C@H](CCONC(=N)N)NC(=O)Cc1ccc(CNC(=N)N)cc1)C(=O)N[C@@H](CCONC(=N)N)C(=O)NCc1ccc(C(=N)N)cc1 [MI-1851] | slightly, but statistically not significantly | 0.5 | did not show a significant decrease in cell viability | did not induce relevant changes in the fluorescence signal of AGP | 10.1 |
| CC(C)(C)[C@H](NC(=O)[C@H](CCONC(=N)N)NC(=O)Cc1ccc(CNC(=N)N)cc1)C(=O)N[C@@H](CCONC(=N)N)C(=O)NCc1ccc2c(c1)CN=C2N [MI-2415] | slightly, but statistically not significantly | ≥ 25 | did not show a significant decrease in cell viability | did not induce relevant changes in the fluorescence signal of AGP | 7.1 |
